According to paper PMC11859184, “Synthesis and Evaluation of ^68Ga- and ^177Lu-Labeled [diF-Pro^14]Bombesin(6−14) Analogs for Detection and Radioligand Therapy of Gastrin-Releasing Peptide Receptor-Expressing Cancer” (Pharmaceuticals, 2025):
Like-named read-outs stand apart in the source and are kept apart here.

Assay: Ex vivo biodistribution of 177Lu-labeled ligands in PC-3 tumor-bearing mice
Conditions: mouse, intravenous; for tissue uptake at 72 h: 72 h pi; for tissue uptake at 120 h: 120 h pi; for tissue uptake at 1 h: 1 h pi; for tissue uptake at 4 h: 4 h pi; for tissue uptake at 24 h: 24 h pi
Method: SPECT/CT imaging was conducted using an MI Labs (Houten, The Netherlands) U-SPECT-II/CT scanner with a custom-made ultra-high sensitivity big mouse collimator (2 mm pinhole size) following published procedure. The experiments were obtained in accordance with the same protocol established in the PET/CT imaging and ex vivo biodistributions section. The mice were used for SPECT/CT imaging and ex vivo biodistributions studies once the tumors reached a diameter of 5–8 mm. PC-3 tumor-bearing mice were sedated (2.5% isoflurane in O2) and injected with 31.4–36.9 MBq of the ^177Lu-labeled ligand through a lateral caudal tail vein. The mouse was imaged at 1, 4, 24, 72, and 120 h pi. At each time point, a 5 min CT scan was performed with 615 μA and 60 kV parameters for localization and attenuation, followed by two 30 min static SPECT scans in list mode with an energy window centered around 208 keV. The U-SPECT II software was used to reconstruct data, and the images were decay corrected to the time of injection with PMOD v 3.402 (PMOD Technologies GmbH, Fallanden, Switzerland).
For ex vivo biodistribution studies, the mice were injected with ~3–5 MBq of the ^177Lu-labeled ligand (n = 5). At 1, 4, 24, 72, and 120 h post-injection, the mice were anesthetized with 2% isoflurane, euthanized by CO2 inhalation, and the tissues/organs of interest were […] for radioactivity counting. The blocking study was performed at 1 h pi via co-injection of the ^177Lu-labeled ligand with 100 μg of [D-Phe^6,Leu-NHEt^13,des-Met^14]Bombesin(6–14).

[1] = heart, n = 5, read-out: Heart uptake
[2] = kidneys, n = 5, read-out: Kidneys uptake
[3] = large intestine, n = 5, read-out: Large intestine uptake
[4] = liver, n = 5, read-out: Liver uptake
[5] = lungs, n = 5, read-out: Lungs uptake
[6] = muscle, n = 5, read-out: Muscle uptake
[7] = pancreas, n = 5, read-out: Pancreas uptake
[8] = small intestine, n = 5, read-out: Small intestine uptake
[9] = spleen, n = 5, read-out: Spleen uptake
[10] = stomach, n = 5, read-out: Stomach uptake
[11] = testes, n = 5, read-out: Testes uptake

CC(C)C[C@H](NC(=O)[C@H](Cc1cnc[nH]1)N(C)C(=O)CNC(=O)[C@@H](NC(=O)[C@H](C)NC(=O)[C@H](Cc1c[nH]c2ccccc12)NC(=O)[C@H](CCC(N)=O)NC(=O)[C@@H](Cc1ccccc1)NC(=O)CN1CCC(NC(=O)CN2CCN(CC(=O)O)CCN(CC(=O)O)CCN(CC(=O)O)CC2)CC1)C(C)(C)C)C(=O)N1CC(F)(F)C[C@H]1C(N)=O [[^177Lu]Lu-LW02060, metal not drawn]
tissue uptake at 72 h [1]: 0.01 %ID/g
tissue uptake at 120 h [1]: 0.01 %ID/g
tissue uptake at 1 h (kidneys, 100 ug, blocked (100 µg GRPR antagonist co-injected), read-out: Kidneys uptake): 3.8 ± 0.85 %ID/g
tissue uptake at 1 h [2]: 3.62 ± 0.86 %ID/g
tissue uptake at 4 h [2]: 2.85 ± 0.29 %ID/g
tissue uptake at 24 h [2]: 1.06 ± 0.22 %ID/g
tissue uptake at 72 h [2]: 0.33 ± 0.03 %ID/g
tissue uptake at 120 h [2]: 0.15 ± 0.04 %ID/g
tissue uptake at 1 h (large intestine, 100 ug, blocked (100 µg GRPR antagonist co-injected), read-out: Large intestine uptake): 0.22 ± 0.04 %ID/g
tissue uptake at 1 h [3]: 0.49 ± 0.31 %ID/g
tissue uptake at 4 h [3]: 0.68 ± 0.12 %ID/g
tissue uptake at 24 h [3]: 0.43 ± 0.13 %ID/g
tissue uptake at 72 h [3]: 0.32 ± 0.14 %ID/g
tissue uptake at 120 h [3]: 0.05 ± 0.02 %ID/g
tissue uptake at 1 h (liver, 100 ug, blocked (100 µg GRPR antagonist co-injected), read-out: Liver uptake): 0.27 ± 0.03 %ID/g
tissue uptake at 1 h [4]: 0.47 ± 0.19 %ID/g
tissue uptake at 4 h [4]: 0.27 ± 0.06 %ID/g
tissue uptake at 24 h [4]: 0.14 ± 0.07 %ID/g
tissue uptake at 72 h [4]: 0.06 ± 0.01 %ID/g
tissue uptake at 120 h [4]: 0.07 ± 0.02 %ID/g
tissue uptake at 1 h (lungs, 100 ug, blocked (100 µg GRPR antagonist co-injected), read-out: Lungs uptake): 0.54 ± 0.17 %ID/g
tissue uptake at 1 h [5]: 0.57 ± 0.18 %ID/g
tissue uptake at 4 h [5]: 0.15 ± 0.04 %ID/g
tissue uptake at 24 h [5]: 0.06 ± 0.02 %ID/g
tissue uptake at 72 h [5]: 0.03 ± 0.01 %ID/g
tissue uptake at 120 h [5]: 0.02 %ID/g
tissue uptake at 1 h (muscle, 100 ug, blocked (100 µg GRPR antagonist co-injected), read-out: Muscle uptake): 0.15 ± 0.05 %ID/g
tissue uptake at 1 h [6]: 0.13 ± 0.05 %ID/g
tissue uptake at 4 h [6]: 0.05 ± 0.01 %ID/g
tissue uptake at 24 h [6]: 0.01 %ID/g
tissue uptake at 72 h [6]: 0.01 %ID/g
tissue uptake at 1 h (pancreas, 100 ug, blocked (100 µg GRPR antagonist co-injected), read-out: Pancreas uptake): 0.51 ± 0.12 %ID/g
tissue uptake at 1 h [7]: 2.64 ± 0.63 %ID/g
tissue uptake at 4 h [7]: 1.71 ± 0.08 %ID/g
tissue uptake at 24 h [7]: 1.04 ± 0.19 %ID/g
tissue uptake at 72 h [7]: 0.35 ± 0.08 %ID/g
tissue uptake at 120 h [7]: 0.11 ± 0.01 %ID/g
tissue uptake at 1 h (small intestine, 100 ug, blocked (100 µg GRPR antagonist co-injected), read-out: Small intestine uptake): 0.23 ± 0.06 %ID/g
tissue uptake at 1 h [8]: 0.67 ± 0.16 %ID/g
tissue uptake at 4 h [8]: 0.26 ± 0.04 %ID/g
tissue uptake at 24 h [8]: 0.13 ± 0.01 %ID/g
tissue uptake at 72 h [8]: 0.04 ± 0.01 %ID/g
tissue uptake at 120 h [8]: 0.02 ± 0.01 %ID/g
tissue uptake at 1 h (spleen, 100 ug, blocked (100 µg GRPR antagonist co-injected), read-out: Spleen uptake): 0.2 ± 0.06 %ID/g
tissue uptake at 1 h [9]: 0.46 ± 0.2 %ID/g
tissue uptake at 4 h [9]: 0.13 ± 0.03 %ID/g
tissue uptake at 24 h [9]: 0.09 ± 0.02 %ID/g
tissue uptake at 72 h [9]: 0.07 ± 0.02 %ID/g
tissue uptake at 120 h [9]: 0.05 ± 0.01 %ID/g
tissue uptake at 1 h (stomach, 100 ug, blocked (100 µg GRPR antagonist co-injected), read-out: Stomach uptake): 0.08 ± 0.03 %ID/g
tissue uptake at 1 h [10]: 0.29 ± 0.06 %ID/g
tissue uptake at 4 h [10]: 1.2 ± 1.55 %ID/g
tissue uptake at 24 h [10]: 0.12 ± 0.05 %ID/g
tissue uptake at 72 h [10]: 0.07 ± 0.02 %ID/g
tissue uptake at 120 h [10]: 0.03 ± 0.01 %ID/g
tissue uptake at 1 h (testes, 100 ug, blocked (100 µg GRPR antagonist co-injected), read-out: Testes uptake): 0.14 ± 0.05 %ID/g
tissue uptake at 1 h [11]: 0.18 ± 0.03 %ID/g
tissue uptake at 4 h [11]: 0.04 ± 0.01 %ID/g
tissue uptake at 24 h [11]: 0.02 %ID/g
tissue uptake at 72 h [11]: 0.02 ± 0.01 %ID/g
tissue uptake at 120 h [11]: 0.01 ± 0.01 %ID/g
